For data set [1] the following is noted: cited from earlier work.
Data set [2] relates to gram positive and gram negative, aerobic, and anaerobic bacteria. Conditions: in vivo or in vitro; cited from earlier work.
Data set [3] has as its system AGS cells. In words: Matrigel transwell invasion assay with CXCL12, AGS. The class given is cell-based. Conditions: 5 μm, cell line not given. As for the experimental part:
(A) MDA-MB-231 (2×10^5 cells) were seeded in the top-chamber of the Matrigel. After pre-incubation with or without the composition according to Ex. 6 and its major active components (5 μm) for 6 h, transwell chambers were then placed into the wells of a 24-well plate, in which we had added either the basal medium only or basal medium containing 10 ng/ml CXCL12 for 24 h. After incubation, they were assessed for cell invasion. Columns indicate mean percentage of invaded cells; bars, S.E. *, […]. (B) AGS (2×10^5 cells) were seeded in the top-chamber of the Matrigel. […], transwell chambers were then placed into the wells of a 24-well plate, in […] After incubation, the chambers were assessed for cell invasion. Columns indicate mean percentage of invaded cells; bars, S.E. *, […]. Representative results of three independent experiments are shown. […] AGS cells were treated with 5 μm of the composition and its major active components for indicated times. Total RNA was isolated and analyzed by RT-PCR assay. […] Representative results of three independent experiments are shown. […] Cells were incubated with 5 μm of the active ingredients of the composition and its single major active components for indicated times. Whole-cell extracts were prepared and analyzed by Western blot analysis using antibodies against CXCR4. The same blots were stripped and reprobed with β-actin antibody to show equal protein loading. Representative results of three independent experiments are shown.

Data set [4] deals with CXCR4. In words: CXCR4 protein expression, Western blot of whole-cell extracts of gastric cancer cells. The format is cell-based. The settings on record: 5.0 μm, 6 h, line not given. As for the experimental part:
Different tumor cell types, namely gastric cancer (AGS, MKN45, and SNU16) cells were incubated with different components of the composition as well as a combination according to the finished product for 6 h. Whole-cell extracts were prepared and analyzed by Western blot analysis using antibody against CXCR4. The same blots were stripped and reprobed with β-actin antibody to show equal protein loading. Representative results of three independent experiments are shown.
The same experiment was carried out to find out whether the composition downregulates expression of CXCR4 in gastric (AGS, MKN45, and SNU16) cancer cell lines, which has never been investigated before. Cells were treated with 5 μm active ingredients of Ex. 6 and its major active components for 6 h before assessing the resultant effect on CXCR4 expression.
(A) MDA-MB-231 (2×10^5 cells) were seeded in the top-chamber of the Matrigel. After pre-incubation with or without the composition according to Ex. 6 and its major active components (5 μm) for 6 h, transwell chambers were then placed into the wells of a 24-well plate, in which we had added either the basal medium only or basal medium containing 10 ng/ml CXCL12 for 24 h. After incubation, they were assessed for cell invasion. Columns indicate mean percentage of invaded cells; bars, S.E. *, […]. (B) AGS (2×10^5 cells) were seeded in the top-chamber of the Matrigel. After preincubation with or without the composition and its major active components (5 μm) for 6 h, transwell chambers were then placed into the wells of a 24-well plate, in which we had added either the basal medium only or basal medium containing […] CXCL12 for 24 h. After incubation, the chambers were assessed for cell invasion. Columns indicate mean percentage of invaded cells; bars, S.E. *, […]. Representative results of three independent experiments are shown. […] Total RNA was isolated and analyzed by RT-PCR assay. […] Whole-cell extracts were prepared and analyzed by Western blot analysis using antibodies against CXCR4. […]
In general terms: Immunoblotting shows a protein as a band on a membrane.

Data set [5] has as its system CXCR4. The data set is described as above. The settings on record: 6 h, line not given. The class given is cell-based.
Data set [6] has as its system CXCR4 mRNA. The data set can be described thus: CXCR4 mRNA expression by RT-PCR in AGS cells. The format is cell-based. Conditions: 5 μm. How it is done: (A) MDA-MB-231 (2×10^5 cells) were seeded in the top-chamber of the Matrigel. After pre-incubation with or without the composition according to Ex. 6 and its major active components (5 μm) for 6 h, transwell chambers were then placed into the wells of a 24-well plate, in which we had added either the basal medium only or basal medium containing 10 ng/ml CXCL12 for 24 h. After incubation, they were assessed for cell invasion. Columns indicate mean percentage of invaded cells; bars, S.E. *, P>0.05. (B) AGS (2×10^5 cells) were seeded in the top-chamber of the Matrigel. After preincubation with or without the composition and its major active components (5 μm) for 6 h, transwell chambers were then placed into the wells of a 24-well plate, in which we had added either the basal medium only or basal medium containing 100 ng/ml CXCL12 for 24 h. After incubation, the chambers were assessed for cell invasion. Columns indicate mean percentage of invaded cells; bars, S.E. *, P>0.05. Representative results of three independent experiments are shown. […] AGS cells were treated with 5 μm of the composition and its major active components for indicated times. Total RNA was isolated and analyzed by RT-PCR assay. […] Representative results of three independent experiments are shown. […] Cells were incubated with 5 μm of the active ingredients of the composition and its single major active components for indicated times. Whole-cell extracts were prepared and analyzed by Western blot analysis using antibodies against CXCR4. The same blots were stripped and reprobed with β-actin antibody to show equal protein loading. Representative results of three independent experiments are shown.

Consider `O=S1(=O)CCN(CN2CCS(=O)(=O)NC2)CN1` [Taurolidine, [bis(1,1-dioxoperhydro-1,2,4-thiadiazinyl-4)]-methane], for which the “cumulative dose shown safe and well tolerated” value in data set [1] (cumulative doses) is on record as ≥ 300 g. In addition, the “systemic dose shown safe and well tolerated” value in data set [1] (systemic doses) is “exceeding 40 g/day”. Also, the “Resistance (in words)” value in data set [2] is “has not been observed”.
Take `COc1ccc2[nH]c([S+]([O-])Cc3ncc(C)c(OC)c3C)nc2c1` (stereo not drawn) [PPI, Omeprazol]: the “Percentage of invade cells” value in data set [3] (time 0 hours) is recorded as 85.23 ± 11.51%; in data set [3] (time 2 hours) it was 82.10 ± 15.10%; in data set [3] (time 6 hours), 74.11 ± 6.25%; in data set [3] (time 8 hours), 60.12 ± 11.50%; in data set [3] (time 12 hours), 49.25 ± 7.26%; in data set [3] (time 24 hours) it was 39.25 ± 4.15%. Also, the “Fold change (CXCR4 expression)” value in data set [4] is given as 0.46 ± 0.02; in data set [5] (0.5 μm) it was 1.4 ± 0.02; in data set [5] (1.0 μm), 0.96 ± 0.03; in data set [5] (2.5 μm) it was 0.81 ± 0.05. Also, the “mRNA fold change (CXCR4)” value in data set [6] (time 0 hours) is 0.92 ± 0.02; in data set [6] (time 2 hours), 0.88 ± 0.021; in data set [6] (time 6 hours), 0.67 ± 0.06; in data set [6] (time 8 hours), 0.54 ± 0.04; in data set [6] (time 12 hours), 0.41 ± 0.04; in data set [6] (time 24 hours), 0.38 ± 0.04.
Regarding `CC[C@H]1OC(=O)[C@H](C)[C@@H](O[C@H]2C[C@@](C)(OC)[C@@H](O)[C@H](C)O2)[C@H](C)[C@@H](O[C@@H]2O[C@H](C)C[C@H](N(C)C)[C@H]2O)[C@](C)(OC)C[C@@H](C)C(=O)[C@H](C)[C@@H](O)[C@]1(C)O` [CLR, clarithromycin], the “Percentage of invade cells” value is 85.23 ± 11.51% in data set [3] (time 0 hours); 80.22 ± 10.25% in data set [3] (time 2 hours); 77.26 ± 9.14% in data set [3] (time 6 hours); 62.27 ± 6.50% in data set [3] (time 8 hours); 55.20 ± 7.10% in data set [3] (time 12 hours); 48.20 ± 6.15% in data set [3] (time 24 hours). Also, the “Fold change (CXCR4 expression)” value in data set [4] was determined as 0.44 ± 0.01; in data set [5] (0.5 μm) it was 1.3 ± 0.01; in data set [5] (1.0 μm), 0.97 ± 0.01; in data set [5] (2.5 μm) it was 0.79 ± 0.04. Moreover, the “mRNA fold change (CXCR4)” value in data set [6] (time 0 hours) worked out at 0.90 ± 0.05; in data set [6] (time 2 hours), 0.78 ± 0.02; in data set [6] (time 6 hours), 0.63 ± 0.03; in data set [6] (time 8 hours), 0.50 ± 0.03; in data set [6] (time 12 hours), 0.42 ± 0.03; in data set [6] (time 24 hours) it was 0.37 ± 0.03.
Take `CCS(=O)(=O)CCn1c([N+](=O)[O-])cnc1C` [TND, tinidazole]: the “Percentage of invade cells” value in data set [3] (time 0 hours) was 85.23 ± 11.51%; in data set [3] (time 2 hours), 81.10 ± 14.20%; in data set [3] (time 6 hours) it was 72.55 ± 8.10%; in data set [3] (time 8 hours) it was 64.65 ± 10.11%; in data set [3] (time 12 hours), 51.33 ± 8.20%; in data set [3] (time 24 hours), 42.25 ± 8.55%. In addition, the “Fold change (CXCR4 expression)” value is 0.53 ± 0.03 in data set [4], 1.4 ± 0.01 in data set [5] (0.5 μm), 0.98 ± 0.01 in data set [5] (1.0 μm) and 0.85 ± 0.01 in data set [5] (2.5 μm). Also, the “mRNA fold change (CXCR4)” value in data set [6] (time 0 hours) was 0.94 ± 0.02; in data set [6] (time 2 hours) it was 0.83 ± 0.01; in data set [6] (time 6 hours), 0.79 ± 0.04; in data set [6] (time 8 hours), 0.65 ± 0.03; in data set [6] (time 12 hours), 0.51 ± 0.03; in data set [6] (time 24 hours) it was 0.39 ± 0.03.

Values taken from patent US20140154317A1, “Pharmaceutical Composition for Treatment of Helicobacter Pylori Associated Diseases” (priority 2012, published 2014).
